Structures can show the parent of a compound that is named as a salt.
target: T1, RIPK2 (Homo sapiens, UniProt O43353); test: Fluorescent polarization based binding assay at the ATP binding pocket of RIPK2; settings: full length FLAG His tagged RIPK2; competition with fluorescently labeled ATP competitive ligand (5 nM); mean of a minimum of 2 experiments; read-out: mean pIC50 (RIP2 kinase, fluorescent polarization binding assay) (converted)
T1 construct: Full length FLAG His tagged RIPK2 was purified from a Baculovirus expression system; FLAG (N); 6His (N); made in house; host or cells: Spodoptera frugiperda (Sf9) insect cells, baculovirus
T1 sequence (O43353 whole entry): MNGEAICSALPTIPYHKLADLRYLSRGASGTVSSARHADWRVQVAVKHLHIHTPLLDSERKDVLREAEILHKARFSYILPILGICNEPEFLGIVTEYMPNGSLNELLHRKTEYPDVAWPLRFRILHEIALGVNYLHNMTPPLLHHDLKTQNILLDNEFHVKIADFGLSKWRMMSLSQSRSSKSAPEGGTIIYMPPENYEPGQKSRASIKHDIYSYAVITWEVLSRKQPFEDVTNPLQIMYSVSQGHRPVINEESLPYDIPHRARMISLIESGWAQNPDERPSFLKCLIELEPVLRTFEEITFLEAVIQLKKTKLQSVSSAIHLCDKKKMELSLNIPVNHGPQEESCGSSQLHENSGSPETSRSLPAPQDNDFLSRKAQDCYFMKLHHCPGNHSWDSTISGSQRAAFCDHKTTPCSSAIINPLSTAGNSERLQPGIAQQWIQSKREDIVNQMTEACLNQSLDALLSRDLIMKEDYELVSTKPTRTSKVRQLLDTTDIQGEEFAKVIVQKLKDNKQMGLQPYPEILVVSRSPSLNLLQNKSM
From the text: A fluorescent polarization based binding assay was developed to quantitate interaction of novel test compounds at the ATP binding pocket of RIPK2, by competition with a fluorescently labeled ATP competitive ligand. Full length FLAG His tagged RIPK2 was purified from a Baculovirus expression system and was used at a final assay concentration of twice the KDapparent. A fluorescent labeled ligand (5-({[2-({[3-({4-[(5-hydroxy-2-methylphenyl)amino]-2-pyrimidinyl}amino)phenyl]carbonyl}amino)ethyl]amino}carbonyl)-2-(6-hydroxy-3-oxo-3H-xanthen-9-yl)benzoic acid, prepared as described below) was used at a final assay concentration of 5 nM. Both the enzyme and ligand were prepared in solutions in 50 mM HEPES pH7.5, 150 mM NaCl, 10 mM MgCl2, 1 mM DTT, and 1 mM CHAPS. Test compounds were prepared in 100% DMSO and 100 nL was dispensed to individual wells of a multiwell plate. Next, 5 ul RIPK2 was added to the test compounds at twice the final assay concentration, and incubated at room temperature for 10 minutes. Following the incubation, 5 ul of the fluorescent labeled ligand solution, was added to each reaction, at twice the final assay concentration, and incubated at room temperature for at least 10 minutes. Finally, samples were read on an instrument capable of measuring fluorescent polarization. Test compound inhibition was expressed as percent (%) inhibition of internal assay controls.
For concentration response experiments, normalized data were fit and pIC50s determined using conventional techniques. For example, the following four parameter logistic equation may be used: y=A+(([…]))/(1+(10^x)/(10^C)^D), where: y is the % activity (% inhibition) at a specified compound concentration; A is the minimum % activity; B is the maximum % activity; C=log10(IC50); D=Hill slope; x=log10 (compound concentration [M]); and pIC50=(−C).
The pIC50s are averaged to determine a mean value, for a minimum of 2 experiments.
Full-length human RIPK2 (receptor-interacting serine-threonine kinase 2) cDNA was purchased from Invitrogen (Carlsbad, Calif., USA, Clone ID:10H6368, RIPK2-pENTR 221). […]

SMILES | IC50
CS(=O)(=O)c1ccc2nccc(Nc3n[nH]c4cc(Cl)ccc34)c2c1 [Example 75, N-(6-chloro-1H-indazol-3-yl)-6-(methylsulfonyl)-4-quinolinamine] | 0.126 µM
CS(=O)(=O)c1ccc2nccc(Nc3ccc(O)c(F)c3)c2c1 [Example 12, 2-fluoro-4-{[6-(methylsulfonyl)-4-quinolinyl]amino}phenol] | 0.398 µM
Nc1ccc(S(=O)(=O)c2ccc3nccc(Nc4ccc5scnc5c4)c3c2)cc1 [Example 106, 6-[(4-aminophenyl)sulfonyl]-N-1,3-benzothiazol-5-yl-4-quinolinamine tetrahydrochloride] | 0.126 µM

Source: US20160060222A1, “AMINO-QUINOLINES AS KINASE INHIBITORS” (GlaxoSmithKline Intellectual Property Development Limited, priority 2011, published 2016)
